Test results: US20160046592A1, “PHARMACEUTICAL COMPOSITION FOR THE TREATMENT OF DIABETES” (Ajinomoto Co., Inc., priority 2013, published 2016)
Counter-ions that a name gives are not always drawn.

Target: T1, human GYS1 (glycogen synthase) (Homo sapiens, UniProt P13807)
T1 construct: made in house; host or cells: HEK293T
T1 sequence (P13807 1-737): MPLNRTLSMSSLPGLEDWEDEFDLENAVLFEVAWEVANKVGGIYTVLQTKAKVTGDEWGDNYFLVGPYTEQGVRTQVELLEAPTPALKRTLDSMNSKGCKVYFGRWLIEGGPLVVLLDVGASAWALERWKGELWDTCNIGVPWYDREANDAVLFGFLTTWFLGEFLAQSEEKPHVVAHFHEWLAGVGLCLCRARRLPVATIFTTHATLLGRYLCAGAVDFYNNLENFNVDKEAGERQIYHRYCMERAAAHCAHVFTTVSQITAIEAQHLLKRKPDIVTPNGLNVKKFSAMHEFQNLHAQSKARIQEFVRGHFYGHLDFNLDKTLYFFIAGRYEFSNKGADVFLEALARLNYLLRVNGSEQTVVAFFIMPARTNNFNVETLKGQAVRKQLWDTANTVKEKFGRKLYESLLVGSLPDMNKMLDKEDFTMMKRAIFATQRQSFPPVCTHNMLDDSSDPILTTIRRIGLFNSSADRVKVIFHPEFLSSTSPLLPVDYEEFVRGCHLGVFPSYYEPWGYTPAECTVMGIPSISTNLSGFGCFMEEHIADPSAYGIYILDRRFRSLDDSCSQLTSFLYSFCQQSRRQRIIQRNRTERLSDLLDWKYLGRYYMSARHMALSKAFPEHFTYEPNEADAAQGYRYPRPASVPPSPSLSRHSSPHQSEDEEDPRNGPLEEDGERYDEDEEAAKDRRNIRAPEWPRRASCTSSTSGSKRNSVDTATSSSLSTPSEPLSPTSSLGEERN
Assay: Measurement of glycogen synthase activity
Type: biochemical
Details: concentration causing 50% increase in relative activity; 100% = compound of Example 1 of WO/2011/058154 at 10 μM; 10 mM Glucose-6-phosphate; 37° C. for 25 minutes (Examples 1 to 61 and 67 to 82) or 20 minutes (Examples 62 to 66); absorbance at 340 nm
Experimental: A human GYS1 expression plasmid (pCDNA3.1(+)-hGYS1) was constructed by the following method. By using a human skeletal muscle cDNA of Human MTC Panel I (Takara Bio Inc., 636742) as a template, a human GYS1 gene was amplified by a PCR method using cloning primers (Forward Primer: ATGCCTTTAAACCGCAC, Reverse Primer: TTAGTTACGCTCCTCGC). By using the amplified human GYS1 sequence as a template, restriction enzyme sequences were added by a PCR method using sub-cloning primers (Forward Primer: […], and Reverse Primer: […]), and then the human GYS1 gene was introduced between Xho I and Xba I sites of pCDNA3.1(+) (Invitrogen, V790-20).
Glycogen synthase was prepared by the following method. Human kidney-derived HEK293T cells were seeded in a dish (Thermo Fisher Scientific K.K., 168381) by using a 10% FBS-containing DMEM (Nacalai Tesque, Inc., 0845874) medium, and cultured overnight. Then, by using Lipofectamine LTX (Invitrogen, 15338-100), the cells were transfected with the human GYS1 expression vector according to the attached manual. After culturing under conditions of 37° C. and 5% CO2 for 2 days, the resultant was lysed in a lysis buffer (50 mM Tris-HCl (pH 8.0), 10 mM EDTA, 2 mM EGTA, 100 mM NaF, 1 mM PMSF, 1 mM DTT, and 1× Complete (Roche, 1873580)), homogenized, and then centrifuged at 16000×g at 4° C. for 15 minutes. The precipitated fraction re-dissolved by adding the lysis buffer was used as a glycogen synthase for evaluation.
The glycogen synthase activity was measured by the following method. To a polystyrene 96-well plate, solutions each containing 30 mM glycylglycine (pH 7.3), 40 mM KCl, 20 mM MgCl2, 9.2% DMSO containing one of the test compounds at one of various concentrations, and 10 mM Glucose-6-phosphate (Sigma-Aldrich, G7879) were added at 12 μL/well.
Next, a substrate solution containing 30 mM glycylglycine (pH 7.3), 4.3 mg/mL glycogen (Sigma-Aldrich, G8876), 21.6 mM UDP-glucose (Sigma-Aldrich, U4625), 21.6 mM phosphoenolpyruvic acid (Sigma-Aldrich, P0564), and 4.05 mM NADH (Sigma-Aldrich, N8129) was added at 18 μL/well.
Moreover, an enzyme solution containing 50 mM Tris-HCl (pH 8.0), 27 mM DTT (NACALAI TESQUE, INC., 14128-04), 0.2 mg/mL bovine serum albumin, 0.17 mg/mL glycogen synthase, and 1.5 μL pyruvate kinase/lactate dehydrogenase solution (Sigma-Aldrich, P0294) was added at 18 μL/well to prepare reaction solutions. After the reaction solutions were incubated (at 37° C. for 25 minutes for Examples 1 to 61 and 67 to 82 or at 37° C. for 20 minutes for Examples 62 to 66), the absorbance at 340 nm was measured by using Benchmark Plus (Bio-Rad Laboratories, Inc.).
The activity of each test compound was calculated by the following method. The absorbance at 340 nm of the reaction solution containing the compound and DMSO was subtracted from the absorbance at 340 nm of a reaction solution not containing the compound but containing only DMSO to calculate the change (ΔA340) in absorbance. The relative activity (%) of the test compound at each of the various concentrations was calculated, where the ΔA340 of a reaction solution containing the compound of Example 1 of WO/2011/058154 at a final concentration of 10 μM was taken as 100%. EC50 representing the concentration of the compound at which an increase in the relative activity by 50% was caused was calculated using XLfit (idbs).

Going from `CS(=O)(=O)NCCN(CC(=O)O)C(=O)c1cccc(COc2ccc(-c3cc(F)c(F)c4ccoc34)cc2)c1` [Example 16, 2-[[3-[[4-(4,5-Difluorobenzofuran-7-yl)phenoxy]methyl]benzoyl]-[2-(methanesulfonamido)ethyl]amino]acetic Acid] to `CC(C)(O)CCN(CC(=O)O)C(=O)c1cccc(COc2ccc(-c3cc(F)c(F)c4ccoc34)cc2)c1` [Example 18, 2-[[3-[[4-(4,5-Difluorobenzofuran-7-yl)phenoxy]methyl]benzoyl]-(3-hydroxy-3-methyl-butyl)amino]acetic Acid], the EC50 falls from 16 nM to 7.3 nM (2.2-fold).

Going from `CSc1cc(F)c(F)cc1-c1ccc(OCc2cccc(C(=O)N(CCNS(C)(=O)=O)CC(=O)O)c2)cc1` [Example 17, 2-[[3-[[4-(4,5-Difluoro-2-methylsulfanyl-phenyl)phenoxy]methyl]benzoyl]-[2-(methanesulfonamido)ethyl]amino]acetic Acid] to `CSc1cc(F)c(F)cc1-c1ccc(OCc2cccc(C(=O)N(CCS(C)(=O)=O)CC(=O)O)c2)cc1` [Example 31, 2-[[3-[[4-(4,5-Difluoro-2-methylsulfanyl-phenyl)phenoxy]methyl]benzoyl]-(2-methylsulfonylethyl)amino]acetic Acid], the EC50 rises from 10 nM to 18 nM (1.8-fold).

Going from `CSc1cc(F)c(F)cc1-c1ccc(OCc2cccc(C(=O)N(CC(=O)O)Cc3ccncc3)c2)cc1` [Example 19, 2-[[3-[[4-(4,5-Difluoro-2-methylsulfanyl-phenyl)phenoxy]methyl]benzoyl]-(4-pyridylmethyl)amino]acetic Acid Trifluoroacetate] to `CSc1cc(F)c(F)cc1-c1ccc(OCc2cccc(C(=O)N(CC(=O)O)Cc3ccccn3)c2)cc1` [Example 20, 2-[[3-[[4-(4,5-Difluoro-2-methylsulfanyl-phenyl)phenoxy]methyl]benzoyl]-(2-pyridylmethyl)amino]acetic Acid Trifluoroacetate], the EC50 rises from 3.4 nM to 6.5 nM (1.9-fold).

First: CSc1cc(F)c(F)cc1-c1ccc(OCc2cccc(C(=O)N(CCC(C)O)CC(=O)O)c2)cc1 (centres unmarked) [Example 21, 2-[[3-[[4-(4,5-Difluoro-2-methylsulfanyl-phenyl)phenoxy]methyl]benzoyl]-(3-hydroxybutyl)amino]acetic Acid]
Second: CNCCN(CC(=O)O)C(=O)c1cccc(COc2ccc(-c3cc(F)c(F)cc3SC)cc2)c1 [Example 28, 2-[[3-[[4-(4,5-Difluoro-2-methylsulfanyl-phenyl)phenoxy]methyl]benzoyl]-[2-(methylamino)ethyl]amino]acetic Acid Trifluoroacetate]
The EC50 of the first is 1.5-fold higher: 15 nM for the first, 10 nM for the second. The second is the more potent here.

`CSc1cc(F)c(F)cc1-c1ccc(OCc2cccc(C(=O)N(CC(=O)O)[C@@H](C)C(N)=O)c2)cc1` [Example 22, 2-[[(1S)-2-Amino-1-methyl-2-oxo-ethyl]-[3-[[4-(4,5-difluoro-2-methylsulfanyl-phenyl)phenoxy]methyl]benzoyl]amino]acetic Acid] and `CSc1cc(F)c(F)cc1-c1ccc(OCc2cccc(C(=O)N(CC(=O)O)CC(=O)O)c2)cc1` [Example 27, 2-[Carboxymethyl-[3-[[4-(4,5-difluoro-2-methylsulfanyl-phenyl)phenoxy]methyl]benzoyl]amino]acetic Acid] are within 1.5-fold of each other in EC50: 13 nM for the first, 10 nM for the second.

`COC(C)(C)CN(CC(=O)O)C(=O)c1cccc(COc2ccc(-c3cc(F)c(F)cc3SC)cc2)c1` [Example 23, 2-[[3-[[4-(4,5-Difluoro-2-methylsulfanyl-phenyl)phenoxy]methyl]benzoyl]-(2-methoxy-2-methyl-propyl)amino]acetic Acid] and `COCCCN(CC(=O)O)C(=O)c1cccc(COc2ccc(-c3cc(F)c(F)cc3SC)cc2)c1` [Example 30, 2-[[3-[[4-(4,5-Difluoro-2-methylsulfanyl-phenyl)phenoxy]methyl]benzoyl]-(3-methoxypropyl)amino]acetic Acid] are within 1.5-fold of each other in EC50: 17 nM for the first, 15 nM for the second.

`CCN(CC)CCN(CC(=O)O)C(=O)c1cccc(COc2ccc(-c3cc(F)c(F)cc3SC)cc2)c1` [Example 24, 2-[2-Diethylaminoethyl-[3-[[4-(4,5-difluoro-2-methylsulfanyl-phenyl)phenoxy]methyl]benzoyl]amino]acetic Acid Trifluoroacetate] and `CSc1cc(F)c(F)cc1-c1ccc(OCc2cccc(C(=O)N(CCCN(C)C)CC(=O)O)c2)cc1` [Example 26, 2-[[3-[[4-(4,5-Difluoro-2-methylsulfanyl-phenyl)phenoxy]methyl]benzoyl]-[3-(dimethylamino)propyl]amino]acetic Acid Trifluoroacetate] are within 1.5-fold of each other in EC50: 11 nM for the first, 14 nM for the second.

First: CSc1cc(F)c(F)cc1-c1ccc(OCc2cccc(C(=O)N(CC(=O)O)CC(=O)N3CCCC3)c2)cc1 [Example 25, 2-[[3-[[4-(4,5-Difluoro-2-methylsulfanyl-phenyl)phenoxy]methyl]benzoyl]-(2-oxo-2-pyrrolidin-1-yl-ethyl)amino]acetic Acid]
Second: CSc1cc(F)c(F)cc1-c1ccc(OCc2cccc(C(=O)N(CC(=O)O)CC3CCOCC3)c2)cc1 [Example 34, 2-[[3-[[4-(4,5-Difluoro-2-methylsulfanyl-phenyl)phenoxy]methyl]benzoyl]-(tetrahydropyran-4-ylmethyl)amino]acetic Acid]
The EC50 of the first is 1.6-fold lower: 15 nM for the first, 24 nM for the second. The first is the more potent here.

`CSc1cc(F)c(F)cc1-c1ccc(OCc2cccc(C(=O)N3C[C@H](O)C[C@H]3C(=O)O)c2)cc1` [Example 29, (2S,4R)-1-[3-[[4-(4,5-Difluoro-2-methylsulfanyl-phenyl)phenoxy]methyl]benzoyl]-4-hydroxy-pyrrolidine-2-carboxylic Acid] and `CSc1cc(F)c(F)cc1-c1ccc(OCc2cccc(C(=O)N(CC(=O)O)C3CCNCC3)c2)cc1` [Example 36, 2-[[3-[[4-(4,5-Difluoro-2-methylsulfanyl-phenyl)phenoxy]methyl]benzoyl]-(4-piperidyl)amino]acetic Acid Trifluoroacetate] are within 1.5-fold of each other in EC50: 19 nM for the first, 21 nM for the second.

`CSc1cc(F)c(F)cc1-c1ccc(OCc2cccc(C(=O)N(CCCS(C)(=O)=O)CC(=O)O)c2)cc1` [Example 32, 2-[[3-[[4-(4,5-Difluoro-2-methylsulfanyl-phenyl)phenoxy]methyl]benzoyl]-(3-methylsulfonylpropyl)amino]acetic Acid] and `CSc1cc(F)c(F)cc1-c1ccc(OCc2cccc(C(=O)N(CC(=O)O)CC3CCNCC3)c2)cc1` [Example 35, 2-[[3-[[4-(4,5-Difluoro-2-methylsulfanyl-phenyl)phenoxy]methyl]benzoyl]-(4-piperidylmethyl)amino]acetic Acid Trifluoroacetate] are within 1.5-fold of each other in EC50: 20 nM for the first, 19 nM for the second.
